Measurements published in ChEMBL document CHEMBL3885881, “DrugMatrix”.

Organism: Rattus norvegicus
Test: DrugMatrix - Regimen: Daily Repeat
Type: toxicity, organism-based, Sprague-Dawley
Parameters: regimen Daily Repeat, gender Male, age 6-8 weeks
Conditions: in vivo, po, route oral GAVAGE, […]; for ABSOLUTE BASOPHIL / ABSOLUTE EOSINOPHIL / ABSOLUTE LYMPHOCYTE / ABSOLUTE MONOCYTE / ABSOLUTE SEGMENTED NEUTROPHIL / BASOPHIL / EOSINOPHIL / ERYTHROCYTE COUNT / HEMATOCRIT / HEMOGLOBIN / LEUKOCYTE COUNT / LYMPHOCYTE / MEAN CORPUSCULAR HEMOGLOBIN / MEAN CORPUSCULAR HEMOGLOBIN CONCENTRATION / MEAN CORPUSCULAR VOLUME / MONOCYTE / NEUTROPHIL / NUCLEATED RED BLOOD CELLS / PLATELET COUNT: tissue Blood; for ALANINE AMINOTRANSFERASE / ALBUMIN / ALKALINE PHOSPHATASE / ASPARTATE AMINOTRANSFERASE / BLOOD UREA NITROGEN / CARBON DIOXIDE / CHLORIDE / CHOLESTEROL / CREATINE PHOSPHOKINASE / CREATININE / GLUCOSE / LACTATE DEHYDROGENASE / LIPASE / PHOSPHORUS / POTASSIUM / SODIUM / TOTAL BILIRUBIN / TOTAL PROTEIN / URIC ACID: tissue Plasma
[1] = 0 mg/kg, 72 h, dose level Control, time 3 day
[2] = 0 mg/kg, 120 h, dose level Control, time 5 day
[3] = 0.05 mg/kg, 72 h, dose level Low, time 3 day

Q: Which results are given for `COCc1c(C(C)C)nc(C(C)C)c(/C=C/[C@@H](O)C[C@@H](O)CC(=O)O)c1-c1ccc(F)cc1` [CERIVASTATIN]?
A: ABSOLUTE BASOPHIL [1]: 0 CELLS/uL; ABSOLUTE EOSINOPHIL [1]: 0 CELLS/uL; ABSOLUTE LYMPHOCYTE [1]: 11091.17 CELLS/uL; ABSOLUTE MONOCYTE [1]: 172.17 CELLS/uL; ABSOLUTE SEGMENTED NEUTROPHIL [1]: 1186.67 CELLS/uL; BASOPHIL [1]: 0%; EOSINOPHIL [1]: 0%; ERYTHROCYTE COUNT [1]: 5.87 x10E6/uL; HEMATOCRIT [1]: 36.87%; HEMOGLOBIN [1]: 14.03 G/DL; LEUKOCYTE COUNT [1]: 12.45 x10E3/uL; LYMPHOCYTE [1]: 88.67%; MEAN CORPUSCULAR HEMOGLOBIN [1]: 23.93 pg; MEAN CORPUSCULAR HEMOGLOBIN CONCENTRATION [1]: 38.1 G/DL; MEAN CORPUSCULAR VOLUME [1]: 62.73 fL; MONOCYTE [1]: 1.5%; NEUTROPHIL [1]: 9.83%; NUCLEATED RED BLOOD CELLS [1]: 0 /100WBC; PLATELET COUNT [1]: 1150.33 x10E3/uL; ALANINE AMINOTRANSFERASE [1]: 67.17 u/L; ALBUMIN [1]: 4.03 G/DL; ALKALINE PHOSPHATASE [1]: 462.5 u/L; ASPARTATE AMINOTRANSFERASE [1]: 88 u/L; BLOOD UREA NITROGEN [1]: 13.17 mg/dL; CARBON DIOXIDE [1]: 29.33 mmol/L; CHLORIDE [1]: 101 MEQ/L; CHOLESTEROL [1]: 69.17 mg/dL; CREATINE PHOSPHOKINASE [1]: 292.5 u/L; CREATININE [1]: 0.17 mg/dL; GLUCOSE [1]: 167.5 mg/dL; LACTATE DEHYDROGENASE [1]: 198.5 u/L; LIPASE [1]: 10.67 u/L; PHOSPHORUS [1]: 11.73 mg/dL; POTASSIUM [1]: 5.91 MEQ/L; SODIUM [1]: 143.3 MEQ/L; TOTAL BILIRUBIN [1]: 0.18 mg/dL; TOTAL PROTEIN [1]: 5.7 G/DL; URIC ACID [1]: 1.3 mg/dL; ABSOLUTE BASOPHIL [2]: 0 CELLS/uL; ABSOLUTE EOSINOPHIL [2]: 64.33 CELLS/uL; ABSOLUTE LYMPHOCYTE [2]: 12494.67 CELLS/uL; ABSOLUTE MONOCYTE [2]: 117 CELLS/uL; ABSOLUTE SEGMENTED NEUTROPHIL [2]: 1340.67 CELLS/uL; BASOPHIL [2]: 0%; EOSINOPHIL [2]: 0.33%; ERYTHROCYTE COUNT [2]: 5.82 x10E6/uL; HEMATOCRIT [2]: 36.97%; HEMOGLOBIN [2]: 14.18 G/DL; LEUKOCYTE COUNT [2]: 14.02 x10E3/uL; LYMPHOCYTE [2]: 89%; MEAN CORPUSCULAR HEMOGLOBIN [2]: 24.42 pg; MEAN CORPUSCULAR HEMOGLOBIN CONCENTRATION [2]: 38.4 G/DL; MEAN CORPUSCULAR VOLUME [2]: 63.52 fL; MONOCYTE [2]: 0.83%; NEUTROPHIL [2]: 9.83%; NUCLEATED RED BLOOD CELLS [2]: 0 /100WBC; PLATELET COUNT [2]: 1097.83 x10E3/uL; ALANINE AMINOTRANSFERASE [2]: 58.83 u/L; ALBUMIN [2]: 3.92 G/DL; ALKALINE PHOSPHATASE [2]: 414.17 u/L; ASPARTATE AMINOTRANSFERASE [2]: 89.17 u/L; BLOOD UREA NITROGEN [2]: 16.83 mg/dL; CARBON DIOXIDE [2]: 29.17 mmol/L; CHLORIDE [2]: 100.33 MEQ/L; CHOLESTEROL [2]: 54.5 mg/dL; CREATINE PHOSPHOKINASE [2]: 386.17 u/L; CREATININE [2]: 0.23 mg/dL; GLUCOSE [2]: 184.17 mg/dL; LACTATE DEHYDROGENASE [2]: 229.17 u/L; LIPASE [2]: 10.83 u/L; PHOSPHORUS [2]: 10.88 mg/dL; POTASSIUM [2]: 5.97 MEQ/L; SODIUM [2]: 142.2 MEQ/L; TOTAL BILIRUBIN [2]: 0.12 mg/dL; TOTAL PROTEIN [2]: 5.63 G/DL; URIC ACID [2]: 1.55 mg/dL; ABSOLUTE BASOPHIL [3]: 0 CELLS/uL; ABSOLUTE EOSINOPHIL [3]: 0 CELLS/uL; ABSOLUTE LYMPHOCYTE [3]: 11310.33 CELLS/uL; ABSOLUTE MONOCYTE [3]: 175.33 CELLS/uL; ABSOLUTE SEGMENTED NEUTROPHIL [3]: 1347.67 CELLS/uL; BASOPHIL [3]: 0%; EOSINOPHIL [3]: 0%; ERYTHROCYTE COUNT [3]: 5.68 x10E6/uL; HEMATOCRIT [3]: 35.3%; HEMOGLOBIN [3]: 13.6 G/DL; LEUKOCYTE COUNT [3]: 12.83 x10E3/uL; LYMPHOCYTE [3]: 88.33%; MEAN CORPUSCULAR HEMOGLOBIN [3]: 23.97 pg; MEAN CORPUSCULAR HEMOGLOBIN CONCENTRATION [3]: 38.53 G/DL; MEAN CORPUSCULAR VOLUME [3]: 62.17 fL; MONOCYTE [3]: 1.33%; NEUTROPHIL [3]: 10.33%; NUCLEATED RED BLOOD CELLS [3]: 0 /100WBC; PLATELET COUNT [3]: 1230 x10E3/uL; ALANINE AMINOTRANSFERASE [3]: 65 u/L; ALBUMIN [3]: 4.07 G/DL; ALKALINE PHOSPHATASE [3]: 429 u/L; ASPARTATE AMINOTRANSFERASE [3]: 96.67 u/L; BLOOD UREA NITROGEN [3]: 15.67 mg/dL; CARBON DIOXIDE [3]: 25 mmol/L; CHLORIDE [3]: 103 MEQ/L; CHOLESTEROL [3]: 64 mg/dL; CREATINE PHOSPHOKINASE [3]: 269.33 u/L; CREATININE [3]: 0.13 mg/dL; GLUCOSE [3]: 169.67 mg/dL; LACTATE DEHYDROGENASE [3]: 270.33 u/L; LIPASE [3]: 10 u/L; PHOSPHORUS [3]: 12.17 mg/dL; POTASSIUM [3]: 6.2 MEQ/L; SODIUM [3]: 144.27 MEQ/L; TOTAL BILIRUBIN [3]: 0.13 mg/dL; TOTAL PROTEIN [3]: 5.63 G/DL; URIC ACID [3]: 1.9 mg/dL
